Laboratory results reported in the CheMixHub viscosity set.
± gives the uncertainty stated by the source.

Test: xn = mol fraction of the nth substance listed

Cn1ccnc1 + O
viscosity [mPa·s], 100 kPa
Conditions | 298.15 K | 308.15 K | 318.15 K
x1 = 0.0499 | 1.322 ± 0.13 | 1.024 ± 0.1 | 0.821 ± 0.083
x1 = 0.0997 | 1.733 ± 0.17 | 1.313 ± 0.13 | 1.031 ± 0.1
x1 = 0.1496 | 2.155 ± 0.22 | 1.611 ± 0.16 | 1.239 ± 0.12
x1 = 0.1996 | 2.583 ± 0.26 | 1.893 ± 0.19 | 1.451 ± 0.15
x1 = 0.2991 | 3.413 ± 0.34 | 2.423 ± 0.24 | 1.806 ± 0.18
x1 = 0.3993 | 3.978 ± 0.4 | 2.789 ± 0.28 | 2.034 ± 0.21
x1 = 0.499 | 4.032 ± 0.41 | 2.846 ± 0.29 | 2.094 ± 0.21
x1 = 0.5989 | 3.653 ± 0.37 | 2.644 ± 0.27 | 1.983 ± 0.2
x1 = 0.6996 | 3.103 ± 0.31 | 2.278 ± 0.23 | 1.772 ± 0.18
x1 = 0.7996 | 2.561 ± 0.26 | 1.974 ± 0.2 | 1.579 ± 0.16
x1 = 0.8493 | 2.337 ± 0.23 | 1.829 ± 0.18 | 1.491 ± 0.15
x1 = 0.8988 | 2.136 ± 0.21 | 1.673 ± 0.17 | 1.388 ± 0.14
x1 = 0.9496 | 1.96 ± 0.2 | 1.557 ± 0.16 | 1.309 ± 0.13

O=BOB([O-])OB([O-])OB=O.[Na+].[Na+] + O
viscosity [mPa·s], 101 kPa
Conditions | x1 = 0.0009 | x1 = 0.0018 | x1 = 0.0022 | x1 = 0.0027
298.15 K | 0.9284 ± 0.01 | 0.9681 ± 0.01 | 0.9845 ± 0.01 | 1.008 ± 0.01
308.15 K | 0.7526 ± 0.0084 | 0.7823 ± 0.0086 | 0.7945 ± 0.0087 | 0.8122 ± 0.0088
318.15 K | 0.6216 ± 0.0074 | 0.6508 ± 0.0076 | 0.6626 ± 0.0076 | 0.6806 ± 0.0077

O=C[C@@H](O)[C@@H](O)[C@H](O)[C@H](O)CO + O
viscosity [mPa·s], 101 kPa
Conditions | 293.15 K | 303.15 K | 308.15 K | 313.15 K
x1 = 0.0026 | 1.052 ± 0.024 | 0.8259 ± 0.019 | – | 0.6702 ± 0.015
x1 = 0.005 | 1.116 ± 0.025 | 0.8625 ± 0.02 | 0.7717 ± 0.018 | 0.6965 ± 0.016

OCCN1CCOCC1 + O
101 kPa
Conditions | viscosity [mPa·s]
303.15 K, x1 = 0.8238 | 30.25 ± 2
313.15 K, x1 = 0.1126 | 13.55 ± 0.96

CN(C)c1ccccc1 + O=C1CCCCC1
viscosity [mPa·s], 101 kPa
Conditions | 303.15 K | 308.15 K
x1 = 0.0699 | 1.724 ± 0.061 | 1.569 ± 0.056
x1 = 0.1269 | 1.658 ± 0.059 | 1.502 ± 0.054
x1 = 0.1906 | 1.587 ± 0.056 | 1.432 ± 0.051
x1 = 0.2652 | 1.512 ± 0.054 | 1.353 ± 0.049
x1 = 0.3251 | 1.457 ± 0.052 | 1.299 ± 0.047
x1 = 0.4012 | 1.395 ± 0.05 | 1.245 ± 0.045
x1 = 0.4852 | 1.336 ± 0.048 | 1.195 ± 0.043
x1 = 0.5602 | 1.292 ± 0.047 | 1.161 ± 0.042
x1 = 0.6421 | 1.254 ± 0.045 | 1.136 ± 0.041
x1 = 0.7014 | 1.231 ± 0.045 | 1.124 ± 0.041
x1 = 0.7745 | 1.209 ± 0.044 | 1.114 ± 0.041
x1 = 0.8512 | 1.192 ± 0.043 | 1.113 ± 0.041
x1 = 0.9212 | 1.18 ± 0.043 | 1.112 ± 0.041
